Like-named read-outs stand apart in the source and are kept apart here.

By Kd is commonly meant the constant that tells how readily two partners part at equilibrium.

Assay [1] addresses T1, OBP6 (Acyrthosiphon pisum, UniProt A0A8R1TDN2). Put plainly: 1-NPN fluorescence competitive binding assay, OBP6. The protocol: (§1) All fluorescent measurements were undertaken using a Perkin-Elmer LS50B fluorescence spectrophotometer, using a 2 mL quartz cuvette, and the settings described below in Table 13, unless otherwise stated. Spectra were recorded using FL WinLab software.
(§2) Saturation of OBPs with fluorescent probe and 1-NPN (Sigma-Aldrich) was initially measured by titrating a 2 μM protein sample (2 mL in 25 mM Tris-HCl) with aliquots of 1 mM ligand (Sigma-Aldrich) in methanol to final concentrations of 1-16 μM. The fluorescence intensity at […] was recorded.
(§3) The competitive binding of ligands was measured by observing the intrinsic fluorescence of tryptophan. Titrations were performed with aliquots of 1 mM ligand in methanol to final concentrations of 1-20 μM, either after the addition of fluorescent probe to a final concentration of 1 μM or in the absence of fluorescent probe.
(§4) To generate KD values, relative fluorescence intensity was plotted against the concentration of ligand as a binding curve. KD values were generated in GraphPad Prism 7 using a non-linear regression and the inbuilt equation: […]

Assay [2] concerns the target T1, OBP6. Put plainly: Fluorescent probe-free (intrinsic tryptophan fluorescence) binding assay, OBP6. The protocol:
as §1, §3, §4

Assay [3] has as its target OBP9 (Acyrthosiphon pisum, UniProt A0A8R1TD77). As to the kind of experiment: 1-NPN fluorescence competitive binding assay, OBP9. The protocol:
as §1, §2, §3, §4

Setting [4] is: OBP6 with 1-NPN fluorescent probe, non-linear regression, ± error, read-out: OBP6 1-NPN Assay KD.
[5] abbreviates: OBP6, absence of fluorescent probe, non-linear regression, ± error, read-out: OBP6 Fluorescent Probe-Free Assay KD.
The mark [6] stands for this setting: OBP9 with 1-NPN fluorescent probe, non-linear regression, ± error, read-out: OBP9 1-NPN Assay KD.

Chain of OBP9 (A0A8R1TD77 1-165): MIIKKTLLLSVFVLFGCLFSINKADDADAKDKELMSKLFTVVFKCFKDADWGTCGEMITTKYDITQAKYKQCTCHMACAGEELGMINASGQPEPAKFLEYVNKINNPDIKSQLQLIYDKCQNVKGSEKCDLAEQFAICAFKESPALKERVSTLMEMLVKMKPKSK
T1 sequence (A0A8R1TDN2 1-160): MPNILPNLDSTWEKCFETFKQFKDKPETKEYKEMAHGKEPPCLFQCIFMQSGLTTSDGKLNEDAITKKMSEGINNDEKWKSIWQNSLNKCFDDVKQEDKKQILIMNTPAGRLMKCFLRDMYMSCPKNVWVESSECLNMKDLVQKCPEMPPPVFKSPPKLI

Regarding `CC1=CO[C@@H](O)[C@H]2[C@@H]1CC[C@@H]2C` [Compound A, (1R,4aS,7S,7aR)-4,7-dimethyl-1,4a,5,6,7,7a-hexahydrocyclopenta[c]pyran-1-ol], the Kd in assay [1] (setting [4]) was 2.62 ± 0.63 µM; in assay [2] (setting [5]), 12.7 ± 2.31 µM; in assay [3] (setting [6]), 5.74 ± 1.71 µM.
Turning to `CC1=COC(=O)[C@H]2[C@H](C)CC[C@@H]12` [Compound D, (4aR,7R,7aS)-4,7-dimethyl-5,6,7,7a-tetrahydrocyclopenta[c]pyran-1(4aH)-one], the Kd in assay [1] came out at 4.37 ± 0.81 µM; in assay [2] it was 12 ± 4.24 µM; in assay [3] it was 9.68 ± 4.57 µM.
With `C=CC(=C)CC/C=C(\C)CCC=C(C)C` [(E)-β-farnesene], the Kd in assay [1] (setting [4]) turned out to be 10.1 ± 2.88 µM; in assay [2] (setting [5]), 34.5 ± 10.9 µM; in assay [3] (setting [6]) it was 8.32 ± 2.67 µM.
The matching figures for `CC1=COC(=O)[C@H]2[C@@H]1CC[C@@H]2C` [Compound B, (4aS,7S,7aR)-4,7-dimethyl-5,6,7,7a-tetrahydrocyclopenta[c]pyran-1(4aH)-one]: 1.3 ± 0.6 µM, 1.9 ± 0.35 µM and 6.49 ± 1.58 µM.
With `C=CC(C)(O)CCC=C(C)C` (racemic) [(R/S)-linalool], binding in assay [1] was characterised by a dissociation constant (Kd) of 8.95 ± 3.71 µM.
For the compound `CC1=CO[C@H](O)[C@H]2[C@H](C)CC[C@@H]12` [Compound C, (1S,4aR,7R,7aS)-4,7-dimethyl-1,4a,5,6,7,7a-hexahydrocyclopenta[c]pyran-1-ol], the Kd in assay [1] (setting [4]) was determined as 2.65 ± 0.8 µM; in assay [2] (setting [5]) it was 8.46 ± 1.62 µM; in assay [3] (setting [6]) it was 6.29 ± 1.99 µM.

For the origin of these results see patent US20230312476A1, “COMPOUNDS WITH SEMIOCHEMICAL PROPERTIES AND BIOSENSORS” (ROTHAMSTED RESEARCH LIMITED, priority 2020, published 2023).
